# Reference: patent US10517889B2, “Modulators of SMAD7 expression” (Ionis Pharmaceuticals, Inc., priority 2017, dated 2019)
# Strand notation (5' to 3'): a small letter for the sugar, then the base; units joined by * are phosphorothioate-linked, units joined directly phosphodiester-linked; [ ] holds rarer units or linkages, { } end groups; capitals alone tell only the bases. e = 2'-O-(2-methoxyethyl) (MOE); [5mC] = 5-methylcytosine; d = 2'-deoxy (DNA)
# Test system: human SMAD7 mRNA
# Assay: Antisense inhibition of human SMAD7 mRNA expression in Hep3B cells by 5-10-5 MOE gapmers, single concentration, electroporation, RT-PCR (Example 1, Study 1 and 2)
# Type: cell-based
# Conditions: Study 2, electroporation with 15,000 nM antisense oligonucleotide, 5-10-5 MOE gapmers targeting SEQ ID NO: 1 and 2
# Procedure, shortened: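 Readout is percent SMAD7 mRNA inhibition versus untreated cells, measured by qRT-PCR (RTS5062) and corrected for total RNA by RIBOGREEN. Oligonucleotide, 5,000 nM or 15,000 nM, was delivered by electroporation into Hep3B cells at 20,000 per well. RNA was collected about 24 h later.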
Substance,% Inhibition [%],% inhibition of SMAD7 mRNA expression [%]
771871 (antisense e[5mC]*eT*e[5mC]*e[5mC]*e[5mC]*dT*d[5mC]*dT*dG*d[5mC]*d[5mC]*d[5mC]*d[5mC]*dA*dG*eG*eA*eT*eT*e[5mC]) [compound 771871],15,–
771485 (antisense eA*eA*eG*e[5mC]*e[5mC]*d[5mC]*dG*dT*d[5mC]*d[5mC]*dA*d[5mC]*dG*dG*d[5mC]*eT*eG*e[5mC]*eT*eG) [compound 771485],–,15
771830 (antisense eT*eT*eT*eA*eG*dG*dT*dA*dG*dA*dG*dT*dG*dG*d[5mC]*e[5mC]*eG*eG*eG*eA) [compound 771830],40,–
771559 (antisense eA*eA*eG*eT*eG*dA*dA*dA*dT*dG*dA*dT*dG*dA*d[5mC]*e[5mC]*eG*e[5mC]*e[5mC]*e[5mC]) [compound 771559],–,49
771926 (antisense eA*e[5mC]*eA*eA*eA*dG*dG*dT*d[5mC]*dT*dG*dT*dG*dT*dG*eG*eA*e[5mC]*eG*e[5mC]) [compound 771926],13,–
771687 (antisense e[5mC]*eT*eT*eG*eT*dG*dT*dT*dT*dA*dT*d[5mC]*dT*dT*dT*eT*eT*eT*eA*eA) [compound 771687],–,13
771719 (antisense eA*e[5mC]*eT*eG*eA*d[5mC]*dT*dT*dG*d[5mC]*dA*dG*dG*dT*dG*eA*e[5mC]*eT*eG*eG) [compound 771719],35,–
771895 (antisense eA*eT*eT*eT*eG*d[5mC]*dA*dA*d[5mC]*dA*dA*dT*dA*dA*dA*eA*e[5mC]*eA*eA*eA) [compound 771895],0,–
771863 (antisense e[5mC]*e[5mC]*eA*eG*e[5mC]*d[5mC]*d[5mC]*d[5mC]*d[5mC]*dT*d[5mC]*d[5mC]*dT*dG*dG*eG*eA*e[5mC]*eT*eA) [compound 771863],9,–
771739 (antisense eT*eT*eT*eG*eA*dA*dA*dA*d[5mC]*d[5mC]*d[5mC]*dA*dA*d[5mC]*d[5mC]*e[5mC]*eT*eG*eG*eG) [compound 771739],33,–
771766 (antisense e[5mC]*eT*eG*eA*eA*dG*d[5mC]*d[5mC]*d[5mC]*d[5mC]*d[5mC]*d[5mC]*dA*dA*dG*e[5mC]*e[5mC]*eA*eG*eG) [compound 771766],5,–
771887 (antisense e[5mC]*eA*eG*e[5mC]*e[5mC]*dA*d[5mC]*dT*dG*d[5mC]*dT*dG*dT*d[5mC]*dT*eG*eA*eG*eG*eA) [compound 771887],14,–
771638 (antisense eT*eA*eG*eG*eA*dT*dG*dG*dT*dA*d[5mC]*d[5mC]*dT*dT*dG*eG*eG*eT*eT*eA) [compound 771638],–,41
771432 (e[5mC]*eA*eG*eT*eT*dT*d[5mC]*dT*dT*dG*dA*dG*d[5mC]*dA*d[5mC]*e[5mC]*eG*eA*eG*eT; antisense) [compound 771432],28,–
771775 (antisense eA*eA*eT*eG*e[5mC]*d[5mC]*dA*dA*dA*dT*dG*d[5mC]*d[5mC]*d[5mC]*dA*eA*eA*eA*e[5mC]*eT) [compound 771775],41,–
771886 (antisense eA*eA*e[5mC]*e[5mC]*eA*dG*dG*dT*dT*d[5mC]*d[5mC]*d[5mC]*dA*d[5mC]*dT*eG*eT*eT*eA*e[5mC]) [compound 771886],0,–

# Same assay, conditions: electroporation with 15,000 nM antisense oligonucleotide (Study 2), 5-10-5 MOE gapmers targeting SEQ ID NO: 1 and 2
Substance,% inhibition of SMAD7 mRNA expression [%],% Inhibition of SMAD7 mRNA [%]
771642 (antisense eA*eG*eA*eA*eG*dA*dG*dT*dT*dA*dG*dG*dT*dG*dT*e[5mC]*eA*eG*e[5mC]*e[5mC]) [compound 771642],36,–
771688 (antisense e[5mC]*eG*eT*eT*eT*dA*dA*dT*dG*dG*dA*dA*d[5mC]*dA*dT*eA*eA*eA*e[5mC]*eT) [compound 771688],0,13
771536 (antisense eA*eG*e[5mC]*eG*eA*dA*dA*d[5mC]*dA*dA*dA*dA*d[5mC]*dA*dG*eA*eA*e[5mC]*eA*e[5mC]) [compound 771536],–,25
771657 (antisense e[5mC]*eT*eT*eA*eT*dG*dT*dT*dA*dA*dA*dG*dT*d[5mC]*dT*eA*eA*eA*e[5mC]*eA) [compound 771657],6,–
771624 (antisense eT*eT*eA*eA*e[5mC]*dA*d[5mC]*dA*d[5mC]*dA*dG*dG*dA*dT*dG*eG*eG*eA*eG*e[5mC]) [compound 771624],0,27
771363 (antisense eT*e[5mC]*eA*eG*eG*d[5mC]*dT*dT*d[5mC]*dA*d[5mC]*dT*dG*d[5mC]*d[5mC]*e[5mC]*eA*eT*e[5mC]*eG) [compound 771363],–,35
771800 (antisense eG*eA*e[5mC]*eA*eG*d[5mC]*dA*dG*dA*d[5mC]*dA*dG*dG*d[5mC]*dA*eA*eA*eA*eT*eG) [compound 771800],–,32
771473 (antisense eA*eG*e[5mC]*e[5mC]*eG*dA*dT*dT*dT*dT*dG*d[5mC]*dT*d[5mC]*d[5mC]*eG*e[5mC]*eA*e[5mC]*e[5mC]) [compound 771473],–,37
771600 (antisense eT*eG*eG*e[5mC]*e[5mC]*dA*dA*dA*dA*dA*dA*dG*dA*dA*dA*eG*eA*e[5mC]*eG*e[5mC]) [compound 771600],–,11
771648 (antisense e[5mC]*eA*eT*eA*e[5mC]*dG*dA*dG*dT*dG*dT*dA*dT*dG*dA*eG*eT*eT*eG*eT) [compound 771648],0,17
771920 (antisense eT*eT*eA*eT*eT*dT*dA*dA*dT*dT*dA*d[5mC]*d[5mC]*d[5mC]*dT*eG*e[5mC]*eT*e[5mC]*eA) [compound 771920],–,33

# Same assay, conditions: electroporation, 5,000 nM, approximately 24 hours, relative to untreated control cells, gapmers targeting SEQ ID NO: 1 and 2
row,Substance,% inhibition of SMAD7 mRNA expression [%]
1,771739 (antisense eT*eT*eT*eG*eA*dA*dA*dA*d[5mC]*d[5mC]*d[5mC]*dA*dA*d[5mC]*d[5mC]*e[5mC]*eT*eG*eG*eG) [compound 771739],22

# Same assay, conditions: electroporation, 15,000 nM antisense oligonucleotide (Study 2), 5-10-5 MOE gapmers targeting SEQ ID NO: 1 and 2
row,Substance,% inhibition of SMAD7 mRNA expression [%]
1,771881 (antisense eA*eT*eT*eT*eT*d[5mC]*d[5mC]*dA*dA*dA*dA*dG*dG*dA*d[5mC]*eA*eA*eA*eA*e[5mC]) [compound 771881],0
2,771419 (eG*eG*e[5mC]*e[5mC]*eG*d[5mC]*d[5mC]*dG*d[5mC]*d[5mC]*dA*d[5mC]*d[5mC]*dG*dG*e[5mC]*e[5mC]*e[5mC]*e[5mC]*eA; antisense) [compound 771419],37
3,771857 (antisense e[5mC]*eG*eT*e[5mC]*eT*dT*dA*dT*dT*dG*dT*dT*dT*dT*dT*eG*eT*eT*e[5mC]*e[5mC]) [compound 771857],29
4,771698 (antisense e[5mC]*eA*e[5mC]*eA*e[5mC]*dT*d[5mC]*dT*d[5mC]*d[5mC]*d[5mC]*dA*dG*dG*dA*eG*eG*eG*eT*eA) [compound 771698],43
5,771536 (antisense eA*eG*e[5mC]*eG*eA*dA*dA*d[5mC]*dA*dA*dA*dA*d[5mC]*dA*dG*eA*eA*e[5mC]*eA*e[5mC]) [compound 771536],0
6,771545 (antisense e[5mC]*e[5mC]*eA*eA*eA*dA*dA*dA*dA*d[5mC]*d[5mC]*d[5mC]*d[5mC]*d[5mC]*dA*eA*e[5mC]*eA*eA*eT) [compound 771545],21
7,771363 (antisense eT*e[5mC]*eA*eG*eG*d[5mC]*dT*dT*d[5mC]*dA*d[5mC]*dT*dG*d[5mC]*d[5mC]*e[5mC]*eA*eT*e[5mC]*eG) [compound 771363],12
8,771800 (antisense eG*eA*e[5mC]*eA*eG*d[5mC]*dA*dG*dA*d[5mC]*dA*dG*dG*d[5mC]*dA*eA*eA*eA*eT*eG) [compound 771800],12
9,771473 (antisense eA*eG*e[5mC]*e[5mC]*eG*dA*dT*dT*dT*dT*dG*d[5mC]*dT*d[5mC]*d[5mC]*eG*e[5mC]*eA*e[5mC]*e[5mC]) [compound 771473],9
10,771600 (antisense eT*eG*eG*e[5mC]*e[5mC]*dA*dA*dA*dA*dA*dA*dG*dA*dA*dA*eG*eA*e[5mC]*eG*e[5mC]) [compound 771600],0
11,771706 (antisense eG*eG*eG*e[5mC]*e[5mC]*dT*dG*dG*dA*d[5mC]*d[5mC]*dA*dA*dA*dT*e[5mC]*e[5mC]*eA*eA*e[5mC]) [compound 771706],22
12,771530 (antisense eA*eA*eA*eA*eA*d[5mC]*dG*dA*d[5mC]*d[5mC]*dA*dA*dA*dG*dA*eG*eT*eT*eT*eG) [compound 771530],16
13,771920 (antisense eT*eT*eA*eT*eT*dT*dA*dA*dT*dT*dA*d[5mC]*d[5mC]*d[5mC]*dT*eG*e[5mC]*eT*e[5mC]*eA) [compound 771920],13
14,771594 (antisense eG*eG*e[5mC]*e[5mC]*eA*d[5mC]*dT*dA*dG*d[5mC]*dA*dG*dG*d[5mC]*dT*e[5mC]*eG*e[5mC]*eT*eG) [compound 771594],37
15,771746 (antisense eA*eA*eG*e[5mC]*e[5mC]*dG*dG*dG*d[5mC]*dA*dT*d[5mC]*dT*d[5mC]*dA*eG*eA*eG*e[5mC]*eA) [compound 771746],22

# Same assay, conditions: electroporation, 15,000 nM, approximately 24 hours, relative to untreated control cells, gapmers targeting SEQ ID NO: 1 and 2
row,Substance,% inhibition of SMAD7 mRNA expression [%]
1,771749 (antisense eG*eA*eA*eA*eT*dG*dG*dA*dG*dT*dT*dA*d[5mC]*dT*dT*eG*eT*eT*eA*eA) [compound 771749],29
2,771709 (antisense eT*eG*eA*eA*e[5mC]*d[5mC]*d[5mC]*dT*d[5mC]*dA*d[5mC]*dA*dT*d[5mC]*dA*e[5mC]*eA*e[5mC]*eT*e[5mC]) [compound 771709],38
3,771352 (antisense eT*e[5mC]*e[5mC]*eA*eA*d[5mC]*dT*d[5mC]*dT*d[5mC]*dT*dT*dT*dG*d[5mC]*e[5mC]*e[5mC]*e[5mC]*eA*eA) [compound 771352],54
4,771557 (antisense eA*eT*eG*eA*e[5mC]*d[5mC]*dG*d[5mC]*d[5mC]*d[5mC]*d[5mC]*d[5mC]*d[5mC]*dT*dT*e[5mC]*eA*eT*eA*e[5mC]) [compound 771557],19
5,771533 (antisense e[5mC]*eA*eA*eA*e[5mC]*dG*dA*dG*dG*dA*d[5mC]*dG*dA*dG*dA*eA*eG*eA*eA*eG) [compound 771533],2
6,771685 (antisense e[5mC]*eT*eT*eT*eT*dT*dT*dA*dA*dT*dT*dT*dG*dG*d[5mC]*eA*eT*eT*eT*eG) [compound 771685],17
7,771376 (antisense eA*e[5mC]*eG*e[5mC]*eT*d[5mC]*dT*dA*dA*dA*d[5mC]*dA*dG*d[5mC]*dA*eT*eG*eA*eA*eA) [compound 771376],17
